{"source": "patent US7935708B2", "about": "“Dihydropyrazolopyrimidinone derivatives” (MSD K.K., priority 2006, dated 2011)", "key": {"[1]": {"test_system": "Cdc2 (Cdk1) tyrosine 15 phosphorylation in NCI-H1299 cells", "assay": "Cdc2 (Cdk1) tyrosine 15-phosphorylation-inhibitory effect in camptothecin-treated NCI-H1299 cells (ELISA)", "type": "cell-based", "settings": "Homo sapiens, camptothecin 200 nM 16 hours, then test compound with nocodazole 8 hours, read-out: Cdc2-Y15 Phosphorylation-Inhibitory Effect (H1299, + camptothecin) (EC50)", "excerpt": "(§1) Pharmaceutical Text 2 (Method of Determining Drug Potency in Cells (Cdc2 (Cdk1) Tyrosine 15-Phosphorylation-Inhibitory Effect))\n(§2) Fetal bovine serum (FBS) was obtained from Morgate; media RPMI1640 and DMEM were from Invitrogen; camptothecin was from Sigma; gemcitabine was from Nippon Eli Lilly; nocodazole and protease inhibitor cocktail were from Sigma; rabbit anti-Cdc2 antibody and mouse anti-Cdc2 antibody were from Santa Cruz Biotechnology; rabbit anti-tyrosine 15-phosphorylated Cdc2 antibody and horseradish peroxidase-labeled anti-mouse IgG antibody were from Cell Signaling Technology; sure blue reserve TMB peroxidase substrate was from Kirkegaard and Perry Laboratories.\n(§3) Human non-small cell lung cancer cells (NCI-H1299) and human colon cancer cells (WiDr) were obtained from American Type Culture Collection (ATCC).\n(§4) c) Method of Effect Determination:\nIn the method of using NCI-H1299 cells, the cells were suspended in RPMI1640 containing 10% FBS, and the cell suspension was applied to a 96-well Nunclondelta-processed plastic plate (bought from Nunc), in an amount of 2000 cells/100 μL/well, in which the cells were incubated overnight in 5% CO2-95% air at 37° C. Camptothecin was dissolved in dimethylsulfoxide (DMSO), and diluted with RPMI1640 containing 10% FBS, and then this was applied to the plate on which the cells had been previously sowed, in an amount of 50 μL/well in such a manner that the final concentration of camptothecin could be 200 nM. Then, the cells were incubated for 16 hours at 37° C. in 5% CO2-95% air. The test compound was stepwise diluted with DMSO, then diluted with 4000 nM nocodazole-containing RPMI1640 containing 10% FBS, and applied to the plate on which the camptothecin-treated cells had been sowed, in an amount of 50 μL/well. The cells were incubated for 8 hours at 37° C. in 5% CO2-95% air, then the medium was removed, and a cytolytic buffer was added to the plate in an amount of 100 μL/well, shaken at 4° C. for 2 hours, then frozen at −80° C., and melted to give a cell solution. Cdc2 and tyrosine 15-phosphorylated Cdc2 in the cell solution were determined through enzyme-linked immunosorbent assay (ELISA), and the ratio of tyrosine 15-phosphorylated Cdc2 to Cdc2 was calculated to obtain the 50% phosphorylation-inhibitory concentration of the test compound to the cells (EC50, nM). The cytolytic buffer used herein is an aqueous solution containing 20 mM Hepes (pH 7.5), 150 mM sodium chloride, 1 mM disodium ethylenediaminetetraacetate, 0.1% polyoxyethylene (10) octylphenyl ether, 1% protease inhibitor cocktail, 1 mM dithiothreitol, 2 mM sodium orthovanadate, 10 mM sodium fluoride and 10 mM glycerol diphosphate. Cdc2 was determined through ELISA as follows: A rabbit anti-Cdc2 antibody solution, which had been diluted 200-fold with 50 mM carbonate-bicarbonate buffer (pH 9.6), was applied to a 96-well maxisorpimmuno plate (bought from Nunc), in an amount of 50 μL/well, and statically kept overnight at 4° C. so as to fix the antibody on the plate. Next, this was washed three times with phosphate-buffered saline (PBS), and 5% bovine serum albumin-containing PBS (5% BSA/PBS) was added thereto in an amount of 300 μL/well, and statically kept at room temperature for 2 hours, and then again washed three times with PBS. A mouse anti-Cdc2 antibody solution that had been diluted 100-fold with 0.05% polyoxyethylene sorbitan monolaurate and 1% BSA-containing Tris-HCl-buffered saline (1% BSA/TBS-T) was added to it in an amount of 50 μL/well, and the cell solution was added thereto in an amount of 5 μL/well and statically kept overnight at 4° C. Next, this was washed three times with 0.05% polyoxyethylene sorbitan monolaurate and 0.1% BSA-containing Tris-HCl-buffered saline (0.1% BSA/TBS-T), and then a horseradish peroxidase-labeled anti-mouse IgG antibody solution that had been diluted 2000-fold with 1% BSA/TBS-T was added thereto in an amount of 70 μL/well, and statically kept at room temperature for 3 hours. […]"}, "[2]": {"test_system": "Cdc2 (Cdk1) tyrosine 15 phosphorylation in WiDr cells", "assay": "Cdc2 (Cdk1) tyrosine 15-phosphorylation-inhibitory effect in gemcitabine-treated WiDr cells (ELISA)", "type": "cell-based", "settings": "Homo sapiens, gemcitabine 100 nM 24 hours, then test compound with nocodazole 8 hours, read-out: Cdc2-Y15 Phosphorylation-Inhibitory Effect (WiDr, + gemcitabine) (EC50)", "excerpt": "as §1, §2, §3, §4\nIn the method of using WiDr cells, the cells were suspended in DMEM containing 10% FBS, and the cell suspension was applied to a 96-well Nunclondelta-processed plastic plate in an amount of 2000 cells/100 μL/well, in which the cells were incubated overnight in 5% CO2-95% air at 37° C. Gemcitabine was dissolved in PBS, and diluted with DMEM containing 10% FBS, and then this was applied to the plate on which the cells had been previously sowed, in an amount of 50 μL/well in such a manner that the final concentration of gemcitabine could be 100 nM. Then, the cells were incubated for 24 hours at 37° C. in 5% CO2-95% air. The test compound was stepwise diluted with DMSO, then diluted with 1200 nM nocodazole-containing DMEM containing 10% FBS, and applied to the plate on which the gemcitabine-treated cells had been sowed, in an amount of 50 μL/well. The cells were incubated for 8 hours at 37° C. in 5% CO2-95% air, then the culture was removed, and a cytolytic buffer was added to the plate in an amount of 100 μL/well, shaken at 4° C. for 2 hours, then frozen at −80° C., and melted to give a cell solution. Cdc2 and tyrosine 15-phosphorylated Cdc2 in the cell solution were determined through ELISA, and the ratio of tyrosine 15-phosphorylated Cdc2 to Cdc2 was calculated to obtain the 50% phosphorylation-inhibitory concentration of the test compound to the cells (EC50, nM). Cdc2 was determined through ELISA as follows: A rabbit anti-Cdc2 antibody solution, which had been diluted 200-fold with 50 mM carbonate-bicarbonate buffer (pH 9.6), was applied to a 96-well maxisorp plastic plate in an amount of 50 μL/well, and statically kept overnight at 4° C. so as to fix the antibody on the plate. Next, this was washed three times with PBS, and 5% BSA/PBS was added thereto in an amount of 300 μL/well, and statically kept at room temperature for 2 hours, and then again washed three times with PBS. A mouse anti-Cdc2 antibody solution that had been diluted 100-fold with 1% BSA/TBS-T was added to it in an amount of 50 μL/well, and the cell solution was added thereto in an amount of 10 μL/well and statically kept overnight at 4° C. Next, this was washed three times with 0.1% BSA/TBS-T, and then a horseradish peroxidase-labeled anti-mouse IgG antibody solution that had been diluted 2000-fold with 1% BSA/TBS-T was added thereto in an amount of 70 μL/well, and statically kept at room temperature for 3 hours. Finally, this was washed five times with 0.1% BSA/TBS-T, then a substrate of sure blue reserve TMB peroxidase was added to it in an amount of 100 μL/well, and left for coloration in a dark place at room temperature for 15 minutes. Then, 1 M hydrochloric acid was added to it in an amount of 100 μL/well to stop the reaction, and this was analyzed through colorimetry. […]"}}, "data": [{"compound": "C=CCn1c(=O)c2cnc(Nc3ccc(N4CCN(C)CC4)cc3)nc2n1-c1cccc(C(=O)N(C)C)c1", "note": "[Example 1, 3-(2-allyl-6-{[4-(4-methylpiperazin-1-yl)phenyl]amino}-3-oxo-1,2-dihydro-3H-pyrazolo[3,4-d]pyrimidin-1-yl)-N,N-dimethylbenzamide]", "values": [{"measurement": "EC50", "setting": "[1]", "result": 104, "unit": "nM"}, {"measurement": "EC50", "setting": "[2]", "result": 143, "unit": "nM"}]}, {"compound": "C=CCn1c(=O)c2cnc(Nc3ccc(N4CCN(C)CC4)cc3)nc2n1-c1cccc(C(C)(C)O)c1", "note": "[Example 19, 2-allyl-1-[3-(1-hydroxy-1-methylethyl)phenyl]-6-{[4-(4-methylpiperazin-1-yl)phenyl]amino}-1,2-dihydro-3H-pyrazolo[3,4-d]pyrimidin-3-one]", "values": [{"measurement": "EC50", "setting": "[1]", "result": 247, "unit": "nM"}, {"measurement": "EC50", "setting": "[2]", "result": 350, "unit": "nM"}]}, {"compound": "C=CCn1c(=O)c2cnc(Nc3ccc(N4CCN(C)CC4)cc3)nc2n1-c1cccc(CN(C)C)c1", "note": "[Example 26, 2-allyl-1-[3-(dimethylaminomethyl)phenyl]-6-{[4-(4-methylpiperazin-1-yl)phenyl]amino}-1,2-dihydro-3H-pyrazolo[3,4-d]pyrimidin-3-one]", "values": [{"measurement": "EC50", "setting": "[1]", "result": 114, "unit": "nM"}]}, {"compound": "C=CCn1c(=O)c2cnc(Nc3ccc(N4CCN(C)CC4)c(CO)c3)nc2n1-c1ccccn1", "note": "[Example 29, 2-allyl-6-{[3-hydroxymethyl-4-(4-methylpiperazin-1-yl)phenyl]amino}-1-pyridin-2-yl-1,2-dihydro-3H-pyrazolo[3,4-d]pyrimidin-3-one]", "values": [{"measurement": "EC50", "setting": "[1]", "result": 188, "unit": "nM"}]}, {"compound": "C=CCn1c(=O)c2cnc(Nc3ccc(N4CCN(C)CC4)c(C)c3)nc2n1-c1cccc(CN(C)C)n1", "note": "[Example 52, 2-allyl-1-{6-[(dimethylamino)methyl]pyridin-2-yl}-6-{[3-methyl-4-(4-methylpiperazin-1-yl)phenyl]amino}-1,2-dihydro-3H-pyrazolo[3,4-d]pyrimidin-3-one]", "values": [{"measurement": "EC50", "setting": "[1]", "result": 46, "unit": "nM"}]}, {"compound": "C=CCn1c(=O)c2cnc(Nc3ccc(N4CCN(C)CC4)c(C)c3)nc2n1-c1cccc(OCCO)n1", "note": "[Example 98, 2-allyl-1-[6-(2-hydroxyethoxy)pyridin-2-yl]-6-{[3-methyl-4-(4-methylpiperazin-1-yl)phenyl]amino}-1,2-dihydro-3H-pyrazolo[3,4-d]pyrimidin-3-one]", "values": [{"measurement": "EC50", "setting": "[1]", "result": 83, "unit": "nM"}, {"measurement": "EC50", "setting": "[2]", "result": 39, "unit": "nM"}]}, {"compound": "C=CCn1c(=O)c2cnc(Nc3ccc(N4CCN(C)CC4)cc3)nc2n1-c1cccc(CN(C)S(C)(=O)=O)n1", "note": "[Example 99, N-{[6-(2-allyl-6-{[4-(4-methylpiperazin-1-yl)phenyl]amino}-3-oxo-1,2-dihydro-3H-pyrazolo[3,4-d]pyrimidin-1-yl)pyridin-2-yl]methyl}-N-methylmethanesulfonamide]", "values": [{"measurement": "EC50", "setting": "[1]", "result": 86, "unit": "nM"}, {"measurement": "EC50", "setting": "[2]", "result": 122, "unit": "nM"}]}, {"compound": "Cc1cc(Nc2ncc3c(=O)n(Cc4ccccc4)n(-c4ccccc4)c3n2)ccc1N1CCN(C)CC1", "note": "[Example 111, 2-benzyl-6-{[3-methyl-4-(4-methylpiperazin-1-yl)phenyl]amino}-1-phenyl-1,2-dihydro-3H-pyrazolo[3,4-d]pyrimidin-3-one]", "values": [{"measurement": "EC50", "setting": "[1]", "result": 93, "unit": "nM"}]}, {"compound": "C#CCn1c(=O)c2cnc(Nc3ccc(N4CCN(C)CC4)cc3)nc2n1-c1cccc(C(C)(C)O)n1", "note": "[Example 113, 1-[6-(1-hydroxy-1-methylethyl)pyridin-2-yl]-6-{[4-(4-methylpiperazin-1-yl)phenyl]amino}-2-(2-propynyl)-1,2-dihydro-3H-pyrazolo[3,4-d]pyrimidin-3-one]", "values": [{"measurement": "EC50", "setting": "[2]", "result": 8, "unit": "nM"}]}]}
